The nature of data set [1]: Toxicity test in zebrafish embryos. It counts as in vivo. Conditions: zebrafish, in vivo; read-out: LC50 (lethal concentration required to kill 50% of the population). As for the experimental part:
(§1) FIG. 1: In vivo screen using BRAF/MEK/ERK inhibitors. (a) Flow chart of the experimental design. […] For the primary screen, 24 compounds were assessed for their ability to rescue the convergent-extension (CE) phenotype of zebrafish kmt2d morphants, followed by rescue tests of additional phenotypes (jaw and brain) within the kmt2d morphant, or CE of additional genetic KS models. (b) Toxicity results. Twenty embryos at the 8-cell stage were incubated in egg water containing 100 nM, 1 μM, and 10 μM of the 26 compounds. After 24 hours, larvae were scored for toxicity. Black bar: death; grey bar: abnormal morphology; white bar: nontoxic. (c) Embryos were injected with kmt2d-MO at the 2-4 cell stage and soaked in egg water containing 100 nM of each compound at the 8-cell stage. After 24 hours, larvae were scored for CE. […] The efficacy of each compound was determined by a chi-square test in which Class I and Class II were considered together.
(§2) To guard against possible bias, the tool and negative control compounds were interspersed across the experiment and the zebrafish phenotyping team was blinded to the identity of each compound. Typical of small molecule storage, each of the 29 compounds was dissolved in dimethyl sulfoxide (DMSO). […] Next, each compound was diluted serially with egg water and toxicity tested by assaying the percentage of abnormal or dead embryos across three different concentrations (10 μM, 1 μM, 100 nM; FIG. 1B).

The test system of data set [2] is zebrafish embryos. As to the kind of experiment: Toxicity test in zebrafish embryos. It counts as in vivo. As for the experimental part:
as §1, §2

In data set [3] the test system is rap1-CRISPR embryos. As to the kind of experiment: Brain cell proliferation (pHH3 immunostaining) in rap1-mosaic mutants. It counts as in vivo, zebrafish. Conditions: 100 nM, 2 dpf, listed as dmDf. An excerpt: Intellectual disability represents a major phenotype in KS, with some studies reporting almost 90% of patients to be affected (see, Wessels, M. W., et al. Clin Dysmorphol 11, 95-102 (2002)). […] Previous studies have shown that defects in proliferation in the developing zebrafish brain can be a proxy for neurodevelopmental and neurocognitive traits, especially in the context of microcephaly (see, Borck, G. et al. Genome Res 25, 609 (2015); Brooks, S. S. et al. Genetics 198, 723-33 (2014); O'Rawe, J. A. et al. Am J Hum Genet 97, 922-32 (2015); Wortmann, S. B. et al. Am J Hum Genet 96, 245-57 (2015)), a phenotype reported commonly in KS (see, Matsumoto, N. & Niikawa, N. Am J Med Genet C Semin Med Genet 117C, 57-65 (2003)).
For convergence and extension (CE) phenotyping, embryos were scored as described (see, Leitch, C. C. et al. Nat Genet 40, 443-8 (2008)) at the 8-10 somite stage, and images were captured using an AZ100 microscope and NIS Elements software (Nikon). […] The distance between Meckel's (MK) and ceratohyal (CH) cartilages was measured on ventral bright field images with Image J (NIH). […] Fluorescence signal on embryo heads was imaged with the Nikon AZ100 microscope and DS-Qi1MC digital camera using […] Z-stacks to generate extended depth of focus images. Cell numbers were quantified using the ImageJ ICTN plugin (NIH). […]

Entries after “also recorded” stand apart in the source; their conditions may differ.

As for `CC(C)c1nc(-c2cccc(NS(=O)(=O)c3c(F)cccc3F)c2F)c(-c2ccnc(N)n2)s1` [Compound 8, desmethyl-Dabrafenib], the LC50 at 24 h in data set [1] was 1 to 10 µM. The “toxicity at the concentrations used for pMEK test” value in data set [2] (100 nM or 500 nM) was “lack of toxicity”. For the same compound, the “toxicity: pathology (abnormal or dead embryos)” value in data set [2] (100 nM, 24 hours) is reported as “safe”. Besides, the “LC50 relative to effective in vivo exposure (greater by)” value in data set [2] (LC50 vs 0.26 nM exposure) is recorded as “four”. Also, the “overt pathologies in zebrafish embryos” value in data set [2] (zebrafish, in vivo) is on record as “induced no overt pathologies”. For the same compound, the “total number of proliferating (pHH3+) cells in brain” value in data set [3] was “can be rescued; also recorded: restored the total number of proliferating cells to wild type levels”.
